Reference: ChEMBL document CHEMBL3390848, “Affinity selection and sequence-activity relationships of HIV-1 membrane fusion inhibitors directed at the drug-resistant variants” (Medchemcomm, 2010)
Residues, ends and D or L forms follow the SMILES beside them.

Assays:
[1] = test system: Human immunodeficiency virus 1; assay: Thermal stability of HIV1 envelope glycoprotein gp41 His-tagged N-terminal heptad repeat N36-drug complex assessed as thermal unfolding transition state by measuring molar ellipticity at 4 to 90 degC by circular dichroic spectra analysis
[2] = test system: Human immunodeficiency virus 1; assay: Binding affinity to HIV1 His-tagged N-terminal heptad repeat of envelope glycoprotein gp41 assessed as recovery of N36-drug complex at 6 uM after 2 hrs by LC-MS analysis
[3] = test system: Human immunodeficiency virus 1; assay: Binding affinity to HIV1 His-tagged N-terminal heptad repeat of envelope glycoprotein gp41 assessed as recovery of N36-drug complex at 0.6 uM after 2 hrs by LC-MS analysis
[4] = test system: Human immunodeficiency virus 1; assay: Binding affinity to HIV1 His-tagged N-terminal heptad repeat of envelope glycoprotein gp41 assessed as recovery of N36-drug complex at 10 uM after 2 hrs by LC-MS analysis
[5] = test system: Human immunodeficiency virus 1; assay: Binding affinity to HIV1 His-tagged N-terminal heptad repeat of envelope glycoprotein gp41 assessed as recovery of N36-drug complex at 1 uM after 2 hrs by LC-MS analysis
[6] = test system: Human immunodeficiency virus 1; assay: Antiviral activity against HIV1 NL4-3 harboring gp41 D36G mutant infected in human HeLa cells expressing CD4-LTR-beta-gal assessed as inhibition of viral replication after 48 hrs by MAGI assay; type: functional, organism-based

Row | Compound | Tm [1] [°C] | Activity [2] [%] | Activity [3] [%] | Activity [4] [%] | Activity [5] [%] | EC50 [6] [nM]
1 | CC[C@H](C)[C@H](NC(=O)[C@H](CC(C)C)NC(=O)[C@H](CCC(=O)O)NC(=O)[C@H](CCC(=O)O)NC(=O)[C@@H](NC(=O)[C@H](CCCCN)NC(=O)[C@H](CCCCN)NC(=O)[C@@H](NC(=O)[C@H](Cc1ccc(O)cc1)NC(=O)[C@H](CCC(=O)O)NC(=O)[C@H](CCC(=O)O)NC(=O)[C@@H](NC(=O)[C@H](CCCCN)NC(=O)[C@H](CCCCN)NC(=O)[C@H](CC(=O)O)NC(=O)[C@H](Cc1c[nH]c2ccccc12)NC(=O)[C@H](CCC(=O)O)NC(=O)[C@H](CCC(=O)O)NC(=O)[C@H](Cc1c[nH]c2ccccc12)NC(C)=O)[C@@H](C)CC)[C@@H](C)O)[C@@H](C)CC)C(=O)N[C@@H](CCCCN)C(=O)N[C@@H](CCCCN)C(=O)N[C@@H](Cc1ccc(O)cc1)C(=O)N[C@@H](CCC(=O)O)C(=O)N[C@@H](CCC(=O)O)C(=O)N[C@@H](CCC(N)=O)C(=O)N[C@@H](CCC(N)=O)C(=O)N[C@@H](CCCCN)C(=O)N[C@@H](CCCCN)C(=O)N[C@@H](CC(N)=O)C(=O)N[C@@H](CCC(=O)O)C(=O)N[C@@H](CCC(=O)O)C(=O)N[C@@H](CCC(=O)O)C(=O)N[C@@H](CC(C)C)C(=O)N[C@@H](CCCCN)C(=O)N[C@@H](CCCCN)C(N)=O (Ac-WEEWDKKIEEYTKKIEELIKKYEEQQKKNEEELKK-NH2) | 68 | 0.4 | 5.9 | 0.5 | 2.3 | 1.9
2 | CC[C@H](C)[C@H](NC(=O)[C@H](CC(C)C)NC(=O)[C@H](CCC(=O)O)NC(=O)[C@H](CCC(=O)O)NC(=O)[C@@H](NC(=O)[C@H](CCCCN)NC(=O)[C@H](CCCCN)NC(=O)[C@@H](NC(=O)[C@H](Cc1ccc(O)cc1)NC(=O)[C@H](CCC(=O)O)NC(=O)[C@H](CCC(=O)O)NC(=O)[C@@H](NC(=O)[C@H](CCCCN)NC(=O)[C@H](CCCCN)NC(=O)[C@H](CC(=O)O)NC(=O)[C@H](Cc1c[nH]c2ccccc12)NC(=O)[C@H](CCC(=O)O)NC(=O)[C@H](CCC(=O)O)NC(=O)[C@H](Cc1c[nH]c2ccccc12)NC(C)=O)[C@@H](C)CC)[C@@H](C)O)[C@@H](C)CC)C(=O)N[C@@H](CCCCN)C(=O)N[C@@H](CCCCN)C(=O)N[C@@H](CCCNC(=N)N)C(=O)N[C@@H](CCC(=O)O)C(=O)N[C@@H](CCC(=O)O)C(=O)N[C@@H](CCC(N)=O)C(=O)N[C@@H](CCC(N)=O)C(=O)N[C@@H](CCCCN)C(=O)N[C@@H](CCCCN)C(=O)N[C@@H](CC(N)=O)C(=O)N[C@@H](CCC(=O)O)C(=O)N[C@@H](CCC(=O)O)C(=O)N[C@@H](CCC(=O)O)C(=O)N[C@@H](CC(C)C)C(=O)N[C@@H](CCCCN)C(=O)N[C@@H](CCCCN)C(N)=O (Ac-WEEWDKKIEEYTKKIEELIKKREEQQKKNEEELKK-NH2) | 52.3 | 0.1 | 2.5 | 0.3 | 0 | 280
3 | CC[C@H](C)[C@H](NC(=O)[C@H](CC(C)C)NC(=O)[C@H](CCC(=O)O)NC(=O)[C@H](CCC(=O)O)NC(=O)[C@@H](NC(=O)[C@H](CCCCN)NC(=O)[C@H](CCCCN)NC(=O)[C@@H](NC(=O)[C@H](Cc1ccc(O)cc1)NC(=O)[C@H](CCC(=O)O)NC(=O)[C@H](CCC(=O)O)NC(=O)[C@@H](NC(=O)[C@H](CCCCN)NC(=O)[C@H](CCCCN)NC(=O)[C@H](CC(=O)O)NC(=O)[C@H](Cc1c[nH]c2ccccc12)NC(=O)[C@H](CCC(=O)O)NC(=O)[C@H](CCC(=O)O)NC(=O)[C@H](Cc1c[nH]c2ccccc12)NC(C)=O)[C@@H](C)CC)[C@@H](C)O)[C@@H](C)CC)C(=O)N[C@@H](CCCCN)C(=O)N[C@@H](CCCCN)C(=O)N[C@@H](Cc1cnc[nH]1)C(=O)N[C@@H](CCC(=O)O)C(=O)N[C@@H](CCC(=O)O)C(=O)N[C@@H](CCC(N)=O)C(=O)N[C@@H](CCC(N)=O)C(=O)N[C@@H](CCCCN)C(=O)N[C@@H](CCCCN)C(=O)N[C@@H](CC(N)=O)C(=O)N[C@@H](CCC(=O)O)C(=O)N[C@@H](CCC(=O)O)C(=O)N[C@@H](CCC(=O)O)C(=O)N[C@@H](CC(C)C)C(=O)N[C@@H](CCCCN)C(=O)N[C@@H](CCCCN)C(N)=O (Ac-WEEWDKKIEEYTKKIEELIKKHEEQQKKNEEELKK-NH2) | 62.9 | 0.6 | 5.7 | 0.9 | 2.4 | 1.9
4 | CC[C@H](C)[C@H](NC(=O)[C@H](CCCCN)NC(=O)[C@H](CCCCN)NC(=O)[C@H](CC(=O)O)NC(=O)[C@H](Cc1c[nH]c2ccccc12)NC(=O)[C@H](CCC(=O)O)NC(=O)[C@H](CCC(=O)O)NC(=O)[C@H](Cc1c[nH]c2ccccc12)NC(C)=O)C(=O)N[C@@H](CCC(=O)O)C(=O)N[C@@H](CCC(=O)O)C(=O)N[C@@H](Cc1ccc(O)cc1)C(=O)N[C@H](C(=O)N[C@@H](CCCCN)C(=O)N[C@@H](CCCCN)C(=O)N[C@H](C(=O)N[C@@H](CCC(=O)O)C(=O)N[C@@H](CCC(=O)O)C(=O)N[C@@H](CC(C)C)C(=O)N[C@H](C(=O)N[C@@H](CCCCN)C(=O)N[C@@H](CCCCN)C(=O)N[C@H](C(=O)N[C@@H](CCC(=O)O)C(=O)N[C@@H](CCC(=O)O)C(=O)N[C@@H](CCC(N)=O)C(=O)N[C@@H](CCC(N)=O)C(=O)N[C@@H](CCCCN)C(=O)N[C@@H](CCCCN)C(=O)N[C@@H](CC(N)=O)C(=O)N[C@@H](CCC(=O)O)C(=O)N[C@@H](CCC(=O)O)C(=O)N[C@@H](CCC(=O)O)C(=O)N[C@@H](CC(C)C)C(=O)N[C@@H](CCCCN)C(=O)N[C@@H](CCCCN)C(N)=O)[C@@H](C)CC)[C@@H](C)CC)[C@@H](C)CC)[C@@H](C)O (Ac-WEEWDKKIEEYTKKIEELIKKIEEQQKKNEEELKK-NH2) | 84.6 | 7.6 | 6.9 | 4.7 | 11.3 | 1.3
5 | CC[C@H](C)[C@H](NC(=O)[C@H](CC(C)C)NC(=O)[C@H](CCC(=O)O)NC(=O)[C@H](CCC(=O)O)NC(=O)[C@@H](NC(=O)[C@H](CCCCN)NC(=O)[C@H](CCCCN)NC(=O)[C@@H](NC(=O)[C@H](Cc1ccc(O)cc1)NC(=O)[C@H](CCC(=O)O)NC(=O)[C@H](CCC(=O)O)NC(=O)[C@@H](NC(=O)[C@H](CCCCN)NC(=O)[C@H](CCCCN)NC(=O)[C@H](CC(=O)O)NC(=O)[C@H](Cc1c[nH]c2ccccc12)NC(=O)[C@H](CCC(=O)O)NC(=O)[C@H](CCC(=O)O)NC(=O)[C@H](Cc1c[nH]c2ccccc12)NC(C)=O)[C@@H](C)CC)[C@@H](C)O)[C@@H](C)CC)C(=O)N[C@@H](CCCCN)C(=O)N[C@@H](CCCCN)C(=O)N[C@@H](CC(=O)O)C(=O)N[C@@H](CCC(=O)O)C(=O)N[C@@H](CCC(=O)O)C(=O)N[C@@H](CCC(N)=O)C(=O)N[C@@H](CCC(N)=O)C(=O)N[C@@H](CCCCN)C(=O)N[C@@H](CCCCN)C(=O)N[C@@H](CC(N)=O)C(=O)N[C@@H](CCC(=O)O)C(=O)N[C@@H](CCC(=O)O)C(=O)N[C@@H](CCC(=O)O)C(=O)N[C@@H](CC(C)C)C(=O)N[C@@H](CCCCN)C(=O)N[C@@H](CCCCN)C(N)=O (Ac-WEEWDKKIEEYTKKIEELIKKDEEQQKKNEEELKK-NH2) | 59.7 | 0 | 4.3 | 0.7 | 0 | 15
6 | CC[C@H](C)[C@H](NC(=O)[C@H](CC(C)C)NC(=O)[C@H](CCC(=O)O)NC(=O)[C@H](CCC(=O)O)NC(=O)[C@@H](NC(=O)[C@H](CCCCN)NC(=O)[C@H](CCCCN)NC(=O)[C@@H](NC(=O)[C@H](Cc1ccc(O)cc1)NC(=O)[C@H](CCC(=O)O)NC(=O)[C@H](CCC(=O)O)NC(=O)[C@@H](NC(=O)[C@H](CCCCN)NC(=O)[C@H](CCCCN)NC(=O)[C@H](CC(=O)O)NC(=O)[C@H](Cc1c[nH]c2ccccc12)NC(=O)[C@H](CCC(=O)O)NC(=O)[C@H](CCC(=O)O)NC(=O)[C@H](Cc1c[nH]c2ccccc12)NC(C)=O)[C@@H](C)CC)[C@@H](C)O)[C@@H](C)CC)C(=O)N[C@@H](CCCCN)C(=O)N[C@@H](CCCCN)C(=O)N[C@@H](CCCCN)C(=O)N[C@@H](CCC(=O)O)C(=O)N[C@@H](CCC(=O)O)C(=O)N[C@@H](CCC(N)=O)C(=O)N[C@@H](CCC(N)=O)C(=O)N[C@@H](CCCCN)C(=O)N[C@@H](CCCCN)C(=O)N[C@@H](CC(N)=O)C(=O)N[C@@H](CCC(=O)O)C(=O)N[C@@H](CCC(=O)O)C(=O)N[C@@H](CCC(=O)O)C(=O)N[C@@H](CC(C)C)C(=O)N[C@@H](CCCCN)C(=O)N[C@@H](CCCCN)C(N)=O (Ac-WEEWDKKIEEYTKKIEELIKKKEEQQKKNEEELKK-NH2) | 53.5 | 0.1 | 3.6 | 0.2 | 0 | 8.2
7 | CC[C@H](C)[C@H](NC(=O)[C@H](CC(C)C)NC(=O)[C@H](CCC(=O)O)NC(=O)[C@H](CCC(=O)O)NC(=O)[C@@H](NC(=O)[C@H](CCCCN)NC(=O)[C@H](CCCCN)NC(=O)[C@@H](NC(=O)[C@H](Cc1ccc(O)cc1)NC(=O)[C@H](CCC(=O)O)NC(=O)[C@H](CCC(=O)O)NC(=O)[C@@H](NC(=O)[C@H](CCCCN)NC(=O)[C@H](CCCCN)NC(=O)[C@H](CC(=O)O)NC(=O)[C@H](Cc1c[nH]c2ccccc12)NC(=O)[C@H](CCC(=O)O)NC(=O)[C@H](CCC(=O)O)NC(=O)[C@H](Cc1c[nH]c2ccccc12)NC(C)=O)[C@@H](C)CC)[C@@H](C)O)[C@@H](C)CC)C(=O)N[C@@H](CCCCN)C(=O)N[C@@H](CCCCN)C(=O)NCC(=O)N[C@@H](CCC(=O)O)C(=O)N[C@@H](CCC(=O)O)C(=O)N[C@@H](CCC(N)=O)C(=O)N[C@@H](CCC(N)=O)C(=O)N[C@@H](CCCCN)C(=O)N[C@@H](CCCCN)C(=O)N[C@@H](CC(N)=O)C(=O)N[C@@H](CCC(=O)O)C(=O)N[C@@H](CCC(=O)O)C(=O)N[C@@H](CCC(=O)O)C(=O)N[C@@H](CC(C)C)C(=O)N[C@@H](CCCCN)C(=O)N[C@@H](CCCCN)C(N)=O (Ac-WEEWDKKIEEYTKKIEELIKKGEEQQKKNEEELKK-NH2) | 79.1 | 14.4 | 5.9 | 13.8 | 11.6 | 1.9
